Legend:
[1] = target: T1, proteasome in Molt-4 cells (human leukemia) (Homo sapiens, UniProt P20618+P28074); type: cell-based; conditions: assay of Example E, inhibition of MOLT4; read-out: MOLT4 (EC50)
T1 sequence (P28074 60-263): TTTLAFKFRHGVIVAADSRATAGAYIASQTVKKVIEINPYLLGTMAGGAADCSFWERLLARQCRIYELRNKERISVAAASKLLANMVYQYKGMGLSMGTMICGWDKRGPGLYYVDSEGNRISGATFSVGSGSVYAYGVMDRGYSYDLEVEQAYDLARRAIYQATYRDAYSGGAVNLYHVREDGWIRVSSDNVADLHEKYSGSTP
T1 sequence (P20618 29-241): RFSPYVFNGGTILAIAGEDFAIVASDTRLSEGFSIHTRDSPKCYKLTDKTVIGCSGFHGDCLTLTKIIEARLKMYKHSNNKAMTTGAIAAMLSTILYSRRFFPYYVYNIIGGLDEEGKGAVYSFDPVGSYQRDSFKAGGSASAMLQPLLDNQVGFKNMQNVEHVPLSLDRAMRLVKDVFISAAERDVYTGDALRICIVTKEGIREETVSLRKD
Summary of the method: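 Intact Molt-4 cells (6×10^6 cells/mL) in HEPES-buffered saline were preincubated with inhibitor 15 min at 37 °C, then given cell-permeable MeOSuc-FLF-AFC at 25 μM final.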

[2] = target: T2, 20S Human Erythrocyte Proteasome (HEP) (Homo sapiens, UniProt P20618+P28074); experiment: Chymotrypsin-like activity of 20S Human Erythrocyte Proteasome (HEP), IC50 determination; type: biochemical; conditions: assay of Example C, inhibition of HEP
T2 construct: 20S Human Erythrocyte Proteasome (HEP), purchased from Immatics Biotechnologies Inc; purchased Immatics Biotechnologies Inc., Tübingen, Germany; host or cells: human erythrocytes (natural source)
Summary of the method: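 20S proteasome at 0.2 μg/mL (about 0.6 nM catalytic sites) in 20 mM Tris with 0.04% SDS, preincubated 15 min at 37° C with inhibitor before Suc-LLVY-AMC (100 μM final). AMC fluorescence read in the linear range; triplicates, IC50 from concentration series.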

Row | EC50 [1] [nM] | IC50 [2] [nM] | SMILES
1 | < 200 | < 100 | CCCCc1ccc(S(=O)(=O)N[C@@H](CCCNC(=N)N[N+](=O)[O-])C(=O)N[C@@H](CC(C)C)B2O[C@@H]3C[C@@H]4C[C@@H](C4(C)C)[C@]3(C)O2)cc1 [D.4.7, 4-Butyl-benzenesulfonamide, N-[(1S)-1-[[[(1R)-1-[(3aS,4S,6S,7aR)-hexahydro-3a,5,5-trimethyl-4,6-methano-1,3,2-benzodioxaborol-2-yl]-3-methylbutyl]amino]carbonyl]-4-[[imino(nitroamino)methyl]amino]butyl]]
2 | < 200 | < 10 | CCCCCCCCCCCC(=O)N[C@@H](CCCNC(=N)N[N+](=O)[O-])C(=O)N[C@@H](CC(C)C)B1O[C@@H]2C[C@@H]3C[C@@H](C3(C)C)[C@]2(C)O1 [D.3.7, Dodecanamide,N-[(1S)-1-[[[(1R)-1-[(3aS,4S,6S,7aR)-hexahydro-3a,5,5-trimethyl-4,6-methano-1,3,2-benzodioxaborol-2-yl]-3-methylbutyl]amino]carbonyl]-4-[[imino(nitroamino)methyl]amino]butyl]]
3 | < 200 | < 10 | CCCCc1ccc(C(=O)N[C@@H](CNC(=O)c2cccs2)C(=O)N[C@@H](CC(C)C)B(O)O)cc1 [E.5.7, Boronic acid, [(1R)-1-[[(2S)-3-[(thien-2-ylcarbonyl)amino]-2-[(4-butylbenzoylamino)]-1-oxopropyl]amino]-3-methylbutyl]]
4 | 2000 to 10000 | < 100 | COCCOCC(=O)NCC(=O)N[C@@H](CCCNC(=N)N[N+](=O)[O-])C(=O)N[C@@H](CC(C)C)B1O[C@@H]2C[C@@H]3C[C@@H](C3(C)C)[C@]2(C)O1 [D.2.6]
5 | < 200 | < 10 | CC(C)=CCC[C@@H](C)CC(=O)N[C@@H](CCCNC(=N)N[N+](=O)[O-])C(=O)N[C@@H](CC(C)C)B1O[C@@H]2C[C@@H]3C[C@@H](C3(C)C)[C@]2(C)O1 [D.3.75, (3R)-3,7-Dimethyl-oct-6-enoic acid amide,N-[(1S)-1-[[[(1R)-1-[(3aS,4S,6S,7aR)-hexahydro-3a,5,5-trimethyl-4,6-methano-1,3,2-benzodioxaborol-2-yl]-3-methylbutyl]amino]carbonyl]-4-[[imino(nitroamino)methyl]amino]butyl]]
6 | < 200 | < 100 | CCCCc1ccc(NC(=O)N[C@@H](CCCNC(=N)N[N+](=O)[O-])C(=O)N[C@@H](CC(C)C)B2O[C@@H]3C[C@@H]4C[C@@H](C4(C)C)[C@]3(C)O2)cc1 [D.6.8, N-[(1S)-1-[[[(1R)-1-[(3aS,4S,6S,7aR)-hexahydro-3a,5,5-trimethyl-4,6-methano-1,3,2-benzodioxaborol-2-yl]-3-methylbutyl]amino]carbonyl]-4-[[imino(nitroamino)methyl]amino]butyl]-N′-(4-butylphenyl) urea]
7 | < 200 | < 10 | CC(C)C[C@H](NC(=O)[C@H](CCCNC(=N)N[N+](=O)[O-])NC(=O)CCCCCCCCCN1C(=O)c2ccccc2C1=O)B1O[C@@H]2C[C@@H]3C[C@@H](C3(C)C)[C@]2(C)O1 [D.2, 10-(1,3-Dioxo-1,3-dihydro-isoindol-2-yl)-decanamide, N-[(1S)-1-[[[(1R)-1-[(3aS,4S,6S,7aR)-hexahydro-3a,5,5-trimethyl-4,6-methano-1,3,2-benzodioxaborol-2-yl]-3-methylbutyl]amino]carbonyl]-4-[[imino(nitroamino)methyl]amino]butyl]-;]
8 | 200 to 2000 | < 10 | CC(C)C[C@H](NC(=O)[C@H](CCCNC(=N)N[N+](=O)[O-])NC(=O)Cc1ccccc1)B1O[C@@H]2C[C@@H]3C[C@@H](C3(C)C)[C@]2(C)O1 [D.3.3]
9 | < 200 | < 10 | CCCCc1ccc(C(=O)N[C@@H](CNC(=O)c2cccs2)C(=O)N[C@@H](CC(C)C)B2O[C@@H]3C[C@@H]4C[C@@H](C4(C)C)[C@]3(C)O2)cc1 [D.24.8, 4-butylbenzamide, N-[(1S)-1-[[[(1R)-1-[(3aS,4S,6S,7aR)-hexahydro-3a,5,5-trimethyl-4,6-methano-1,3,2-benzodioxaborol-2-yl]-3-methylbulyl]amino]carbonyl]-2-[(thien-2-ylcarbonyl)amino]ethyl]-]
10 | < 200 | < 10 | CCCCCCCCCCCCC(=O)N[C@H](C(=O)N[C@@H](CC(C)C)B1O[C@@H]2C[C@@H]3C[C@@H](C3(C)C)[C@]2(C)O1)[C@@H](C)O [D.8.5, Tridecanamide, N-[(1S,2R)-1-[[[(1R)-1-[(3aS,4S,6S,7aR)-hexahydro-3a,5,5-trimethyl-4,6-methano-1,3,2-benzodioxaborol-2-yl]-3-methylbutyl]amino]carbonyl]-2-hydroxypropyl]]
11 | 200 to 2000 | < 10 | CCCCc1ccc(C(=O)N[C@@H](CC(N)=O)C(=O)N[C@@H](CC(C)C)B(O)O)cc1 [E.1.28, Boronic acid, [(1R)-1-[[(2S)-3-carbamoyl-2-[4-butyl(benzoyl)amino]-1-oxopropyl]amino]-3-methylbutyl]]
12 | < 200 | < 10 | Cc1ccc(OCC(=O)N[C@H](C(=O)N[C@@H](CC(C)C)B2O[C@@H]3C[C@@H]4C[C@@H](C4(C)C)[C@]3(C)O2)[C@@H](C)O)cc1 [D.3.177, (4-Methylphenoxy)acetamide,N-[(1S,2R)-1-[[[(1R)-1-[(3aS,4S,6S,7aR)-hexahydro-3a,5,5-trimethyl-4,6-methano-1,3,2-benzodioxaborol-2-yl]-3-methylbutyl]amino]carbonyl]-2-hydroxypropyl]]

Second part, the compound before the results:

Row | SMILES | EC50 [1] [nM] | IC50 [2] [nM]
13 | CC(C)C[C@H](NC(=O)[C@H](CCCNC(=N)N[N+](=O)[O-])NC(=O)c1cccc(F)c1F)B(O)O [E.2.11, Boronic acid, [(1R)-1-[[(2S)-5-[[imino(nitroamino)methyl]amino]-2-[(2,3-difluorobenzoyl)amino]-1-oxopentyl]amino]-3-methylbutyl]] | > 10000 | < 10
14 | CCCCc1ccc(C(=O)N[C@@H](CCCNC(=N)N[N+](=O)[O-])C(=O)N[C@@H](CC(C)C)B(O)O)cc1 [E.1.3, Boronic acid, [(1R)-1-[[(2S)-5-[[imino(nitroamino)methyl]amino]-2-[(4-butyl-benzoyl)amino]-1-oxopentyl]amino]-3-methylbutyl]] | 200 to 2000 | < 10
15 | Cc1ccc(C(=O)N[C@@H](CCCNC(=N)N[N+](=O)[O-])C(=O)N[C@@H](CC(C)C)B(O)O)s1 [D.7.12, Boronic acid, [(1R)-1-[[(2S)-5-[[imino(nitroamino)methyl]amino]-2-[(5-methylthiophene-2-carbonyl)amino]-1-oxopentyl]amino]-3-methylbutyl]] | > 10000 | < 10
16 | CCOC(=O)/C=C/C(=O)N[C@@H](CCCNC(=N)N[N+](=O)[O-])C(=O)N[C@@H](CC(C)C)B(O)O [E.1.1, Boronic acid, [(1R)-1-[[(2S)-5-[[imino(nitroamino)methyl]amino]-2-[((2E)-3-ethoxycarbonyl-1-oxoprop-2-enyl)amino]-1-oxopentyl]amino]-3-methylbutyl]] | > 10000 | < 10
17 | CC(C)C[C@H](NC(=O)[C@H](CCCNC(=N)N[N+](=O)[O-])NC(=O)COc1ccc2ccccc2c1)B(O)O [E.1.11, Boronic acid, [(1R)-1-[[(2S)-5-[[imino(nitroamino)methyl]amino]-2-[(2-(naphthalen-2-yloxy)acetyl]amino]-1-oxopentyl]amino]-3-methylbutyl]] | 200 to 2000 | < 10
18 | CC(C)C[C@H](NC(=O)[C@H](CCCNC(=N)N[N+](=O)[O-])NC(=O)C1CCCCC1C)B(O)O (stereo partly drawn) [E.2.20, Boronic acid, [(1R)-1-[[(2S)-5-[[imino(nitroamino)methyl]amino]-2-[(2-methylcyclohexanecarbonyl)amino]-1-oxopentyl]amino]-3-methylbutyl]] | 2000 to 10000 | < 10
19 | Cc1ccccc1C(=O)N[C@@H](CCCNC(=N)N[N+](=O)[O-])C(=O)N[C@@H](CC(C)C)B(O)O [E.2.15, Boronic acid, [(1R)-1-[[(2S)-5-[[imino(nitroamino)methyl]amino]-2-[(2-methylbenzoyl)amino]-1-oxopentyl]amino]-3-methylbutyl]] | > 10000 | < 10
20 | CC(=O)CCCC(=O)N[C@@H](CCCNC(=N)N[N+](=O)[O-])C(=O)N[C@@H](CC(C)C)B(O)O [E.2.80, Boronic acid, [(1R)-1-[[(2S)-5-[[imino(nitroamino)methyl]amino]-2-[(5-oxohexanoyl)amino]-1-oxopentyl]amino]-3-methylbutyl]] | 2000 to 10000 | < 100
21 | CCN(CC)c1ccc(C(=O)N[C@@H](CCCNC(=N)N[N+](=O)[O-])C(=O)N[C@@H](CC(C)C)B(O)O)cc1 [D.7.8, Boronic acid, [(1R)-1-[[(2S)-5-[[imino(nitroamino)methyl]amino]-2-[(4-diethylaminobenzoyl)amino]-1-oxopentyl]amino]-3-methylbutyl]] | > 10000 | < 10
